{"source": "patent US20070167403A1", "about": "“Remedy for spinal canal stenosis” (priority 2003, published 2007)", "test_system": "rat", "type": "in vivo", "details": "intravenous administration", "procedure": "It has been confirmed that the compounds used in the present invention have low toxicity and are sufficiently safe for use as pharmaceutical preparations. For example, the maximal tolerated dose of the compound A (lysine salt of (5Z,9β,11α,13E)-17,17-propano-11,16-dihydroxy-9-chloro-20-norprosta-5,13-dienoic acid) in the compound represented by formula (I) used in the present invention was 30 mg/kg weight or more for rat intravenous administration."}
{"smiles": "CCC1(C(O)CC=CC2C(O)CC(Cl)C2CC=CCCCC(=O)O)CCC1.NCCCCC(N)C(=O)O", "note": "(stereo not drawn) [Compound A, (5Z,9β,11α,13E)-17,17-propano-11,16-dihydroxy-9-chloro-20-norprosta-5,13-dienoic acid lysine salt]", "values": [{"measurement": "maximal tolerated dose", "value": "≥ 30", "unit": "mg/kg weight"}]}
